Test results as given in ChEMBL document CHEMBL4507299, “Data for DCP probe PF-04554878” (2021).

How the values were obtained:
[1] = test system: Tyrosine-protein kinase ABL1 (Homo sapiens), P00519 [F317L]
[2] = test system: Tyrosine-protein kinase ABL1 (Homo sapiens), P00519 [H396P]
[3] = target: Activin receptor type-2A (Homo sapiens) (UniProt P27037)
[4] = target: T1, Aurora kinase A (Homo sapiens) (UniProt O14965)
T1 sequence (whole entry): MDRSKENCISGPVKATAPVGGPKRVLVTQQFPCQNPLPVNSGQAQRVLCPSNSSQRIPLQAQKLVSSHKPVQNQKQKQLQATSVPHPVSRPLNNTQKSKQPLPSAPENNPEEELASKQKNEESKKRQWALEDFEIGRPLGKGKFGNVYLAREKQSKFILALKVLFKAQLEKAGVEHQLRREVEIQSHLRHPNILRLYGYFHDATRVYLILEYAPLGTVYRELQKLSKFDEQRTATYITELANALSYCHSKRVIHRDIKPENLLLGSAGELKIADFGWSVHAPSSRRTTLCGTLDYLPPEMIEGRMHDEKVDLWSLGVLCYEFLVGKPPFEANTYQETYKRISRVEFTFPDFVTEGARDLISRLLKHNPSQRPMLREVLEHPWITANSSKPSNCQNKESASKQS

[5] = target: Aurora kinase C (Homo sapiens) (UniProt Q9UQB9)
[6] = target: Calcium/calmodulin-dependent protein kinase type II subunit delta (Homo sapiens) (UniProt Q13557)
[7] = target: Macrophage colony-stimulating factor 1 receptor (Homo sapiens) (UniProt P07333)
[8] = target: Discoidin domain-containing receptor 2 (Homo sapiens) (UniProt Q16832)
[9] = test system: Epidermal growth factor receptor (Homo sapiens), P00533 [UNDEFINED MUTATION]
[10] = target: Mitogen-activated protein kinase 4 (Homo sapiens) (UniProt P31152)
Chain of Mitogen-activated protein kinase 4 (Homo sapiens) (P31152 whole entry): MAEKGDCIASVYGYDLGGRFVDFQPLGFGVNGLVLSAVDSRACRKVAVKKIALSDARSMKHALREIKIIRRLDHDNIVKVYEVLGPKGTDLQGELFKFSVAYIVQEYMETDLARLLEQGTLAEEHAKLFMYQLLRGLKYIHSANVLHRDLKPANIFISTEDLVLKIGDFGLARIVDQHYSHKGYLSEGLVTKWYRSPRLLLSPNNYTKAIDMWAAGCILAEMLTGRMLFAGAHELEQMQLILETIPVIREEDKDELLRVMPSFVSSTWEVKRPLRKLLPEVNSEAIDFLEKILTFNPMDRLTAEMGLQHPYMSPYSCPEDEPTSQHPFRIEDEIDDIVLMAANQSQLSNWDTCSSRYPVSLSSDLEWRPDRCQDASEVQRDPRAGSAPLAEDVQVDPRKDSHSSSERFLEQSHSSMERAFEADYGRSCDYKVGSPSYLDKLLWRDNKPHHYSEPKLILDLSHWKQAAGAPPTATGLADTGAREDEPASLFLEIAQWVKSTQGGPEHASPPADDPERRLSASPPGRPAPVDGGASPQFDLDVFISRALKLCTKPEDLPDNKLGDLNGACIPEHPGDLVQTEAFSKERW

[11] = target: Insulin receptor-related protein (Homo sapiens) (UniProt P14616)
[12] = target: Interleukin-1 receptor-associated kinase 1 (Homo sapiens) (UniProt P51617)
[13] = test system: Mast/stem cell growth factor receptor Kit (Homo sapiens), P10721 [V559D,V654A]
[14] = target: Serine/threonine-protein kinase LATS2 (Homo sapiens) (UniProt Q9NRM7)
[15] = target: Tyrosine-protein kinase Lck (Homo sapiens) (UniProt P06239)
[16] = target: Leucine-rich repeat serine/threonine-protein kinase 2 (Homo sapiens) (UniProt Q5S007)
Chain of Leucine-rich repeat serine/threonine-protein kinase 2 (Homo sapiens) (Q5S007 whole entry): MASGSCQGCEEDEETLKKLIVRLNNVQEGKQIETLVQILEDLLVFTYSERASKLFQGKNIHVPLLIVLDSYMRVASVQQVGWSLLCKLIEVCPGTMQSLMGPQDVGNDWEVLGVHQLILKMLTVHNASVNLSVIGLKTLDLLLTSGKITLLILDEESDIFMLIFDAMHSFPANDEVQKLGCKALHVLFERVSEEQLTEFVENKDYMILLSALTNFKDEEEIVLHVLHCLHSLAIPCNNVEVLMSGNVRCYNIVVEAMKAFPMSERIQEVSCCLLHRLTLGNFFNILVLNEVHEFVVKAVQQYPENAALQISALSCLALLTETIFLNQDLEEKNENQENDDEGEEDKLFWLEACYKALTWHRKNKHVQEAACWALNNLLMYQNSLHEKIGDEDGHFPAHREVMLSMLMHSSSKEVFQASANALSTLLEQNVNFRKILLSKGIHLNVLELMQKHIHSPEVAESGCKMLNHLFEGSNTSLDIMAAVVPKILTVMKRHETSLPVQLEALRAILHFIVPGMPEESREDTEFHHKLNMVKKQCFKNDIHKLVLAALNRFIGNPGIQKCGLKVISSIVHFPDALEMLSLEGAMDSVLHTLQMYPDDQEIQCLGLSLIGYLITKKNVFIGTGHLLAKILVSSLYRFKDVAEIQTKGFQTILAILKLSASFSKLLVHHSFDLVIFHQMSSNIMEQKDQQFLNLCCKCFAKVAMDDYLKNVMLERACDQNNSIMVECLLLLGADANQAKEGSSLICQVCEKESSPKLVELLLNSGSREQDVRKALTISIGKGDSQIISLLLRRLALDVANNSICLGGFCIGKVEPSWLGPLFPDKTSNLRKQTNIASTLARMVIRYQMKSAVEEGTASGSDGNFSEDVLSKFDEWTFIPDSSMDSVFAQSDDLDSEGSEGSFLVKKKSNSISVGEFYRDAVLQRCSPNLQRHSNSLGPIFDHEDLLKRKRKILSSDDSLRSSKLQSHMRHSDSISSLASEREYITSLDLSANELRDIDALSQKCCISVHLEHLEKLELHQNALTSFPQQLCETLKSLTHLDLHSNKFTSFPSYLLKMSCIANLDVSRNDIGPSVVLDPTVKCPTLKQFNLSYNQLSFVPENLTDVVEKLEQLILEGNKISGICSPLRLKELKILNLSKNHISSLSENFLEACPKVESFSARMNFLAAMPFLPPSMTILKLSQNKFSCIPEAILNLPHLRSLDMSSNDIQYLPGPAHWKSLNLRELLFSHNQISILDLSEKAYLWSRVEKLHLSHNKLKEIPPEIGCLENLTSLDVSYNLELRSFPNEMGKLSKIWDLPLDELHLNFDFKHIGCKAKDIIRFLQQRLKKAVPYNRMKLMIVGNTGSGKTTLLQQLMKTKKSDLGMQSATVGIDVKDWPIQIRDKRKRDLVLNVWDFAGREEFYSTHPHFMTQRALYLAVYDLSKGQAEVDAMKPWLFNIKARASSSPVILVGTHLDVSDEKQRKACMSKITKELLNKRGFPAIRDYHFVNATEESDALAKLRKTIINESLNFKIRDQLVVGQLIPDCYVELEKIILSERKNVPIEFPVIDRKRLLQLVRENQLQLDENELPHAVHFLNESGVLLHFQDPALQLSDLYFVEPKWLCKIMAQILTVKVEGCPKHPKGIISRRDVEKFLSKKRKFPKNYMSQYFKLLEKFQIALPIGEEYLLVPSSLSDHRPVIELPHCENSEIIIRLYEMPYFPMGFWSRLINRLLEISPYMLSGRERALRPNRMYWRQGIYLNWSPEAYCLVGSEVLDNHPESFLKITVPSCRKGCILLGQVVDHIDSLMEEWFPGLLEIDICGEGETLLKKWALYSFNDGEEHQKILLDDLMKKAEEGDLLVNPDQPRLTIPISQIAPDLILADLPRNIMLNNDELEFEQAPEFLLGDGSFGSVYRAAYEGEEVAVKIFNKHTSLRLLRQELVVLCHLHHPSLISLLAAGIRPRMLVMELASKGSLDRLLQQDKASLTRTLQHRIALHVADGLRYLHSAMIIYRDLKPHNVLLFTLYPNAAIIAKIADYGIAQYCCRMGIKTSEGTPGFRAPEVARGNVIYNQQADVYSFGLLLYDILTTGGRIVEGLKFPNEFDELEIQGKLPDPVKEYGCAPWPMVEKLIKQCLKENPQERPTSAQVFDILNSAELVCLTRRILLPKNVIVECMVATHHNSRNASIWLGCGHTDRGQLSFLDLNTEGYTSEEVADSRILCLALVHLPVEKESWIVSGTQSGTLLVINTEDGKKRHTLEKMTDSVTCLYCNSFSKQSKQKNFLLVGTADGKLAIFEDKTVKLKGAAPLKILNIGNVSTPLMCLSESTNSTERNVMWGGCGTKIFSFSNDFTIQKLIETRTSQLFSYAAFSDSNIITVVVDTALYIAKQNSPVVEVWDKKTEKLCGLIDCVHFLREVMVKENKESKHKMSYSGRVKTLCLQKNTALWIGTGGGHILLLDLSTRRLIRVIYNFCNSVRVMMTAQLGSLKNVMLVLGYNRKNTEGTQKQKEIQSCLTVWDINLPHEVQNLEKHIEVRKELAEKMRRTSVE

[17] = target: Tyrosine-protein kinase Lyn (Homo sapiens, UniProt P07948)
[18] = target: MAP/microtubule affinity-regulating kinase 3 (Homo sapiens) (UniProt P27448)
[19] = target: Mitogen-activated protein kinase 11 (Homo sapiens) (UniProt Q15759)
[20] = target: Serine/threonine-protein kinase PAK 6 (Homo sapiens) (UniProt Q9NQU5)
[21] = target: Calcium-dependent protein kinase 1 (Plasmodium falciparum) (UniProt P62344)
[22] = test system: Phosphatidylinositol 4,5-bisphosphate 3-kinase catalytic subunit alpha isoform (Homo sapiens), P42336 [C420R]
[23] = target: Phosphatidylinositol 4,5-bisphosphate 3-kinase catalytic subunit gamma isoform (Homo sapiens) (UniProt P48736)
[24] = target: Phosphatidylinositol 4-phosphate 5-kinase type-1 alpha (Homo sapiens) (UniProt Q99755)
[25] = target: Phosphatidylinositol 5-phosphate 4-kinase type-2 gamma (Homo sapiens) (UniProt Q8TBX8)
Chain of Phosphatidylinositol 5-phosphate 4-kinase type-2 gamma (Homo sapiens) (Q8TBX8 whole entry): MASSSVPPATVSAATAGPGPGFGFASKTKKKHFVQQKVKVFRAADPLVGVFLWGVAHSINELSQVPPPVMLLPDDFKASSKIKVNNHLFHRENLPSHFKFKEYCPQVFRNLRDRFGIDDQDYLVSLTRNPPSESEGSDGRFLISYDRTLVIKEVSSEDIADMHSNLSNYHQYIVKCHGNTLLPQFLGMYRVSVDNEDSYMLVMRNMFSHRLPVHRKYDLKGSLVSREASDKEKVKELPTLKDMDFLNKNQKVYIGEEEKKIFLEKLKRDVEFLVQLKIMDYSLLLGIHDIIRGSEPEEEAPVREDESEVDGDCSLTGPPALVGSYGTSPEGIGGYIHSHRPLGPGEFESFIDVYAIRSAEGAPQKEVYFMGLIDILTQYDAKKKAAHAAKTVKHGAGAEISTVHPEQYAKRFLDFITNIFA

[26] = target: cGMP-dependent protein kinase 1 (Homo sapiens) (UniProt Q13976)
[27] = target: Proto-oncogene tyrosine-protein kinase receptor Ret (Homo sapiens) (UniProt P07949)
[28] = test system: Proto-oncogene tyrosine-protein kinase receptor Ret (Homo sapiens), P07949 [V804M]
[29] = target: Serine/threonine-protein kinase RIO1 (Homo sapiens) (UniProt Q9BRS2)
[30] = target: Rho-associated protein kinase 1 (Homo sapiens) (UniProt Q13464)
Chain of Rho-associated protein kinase 1 (Homo sapiens) (Q13464 2-1354 limits assumed): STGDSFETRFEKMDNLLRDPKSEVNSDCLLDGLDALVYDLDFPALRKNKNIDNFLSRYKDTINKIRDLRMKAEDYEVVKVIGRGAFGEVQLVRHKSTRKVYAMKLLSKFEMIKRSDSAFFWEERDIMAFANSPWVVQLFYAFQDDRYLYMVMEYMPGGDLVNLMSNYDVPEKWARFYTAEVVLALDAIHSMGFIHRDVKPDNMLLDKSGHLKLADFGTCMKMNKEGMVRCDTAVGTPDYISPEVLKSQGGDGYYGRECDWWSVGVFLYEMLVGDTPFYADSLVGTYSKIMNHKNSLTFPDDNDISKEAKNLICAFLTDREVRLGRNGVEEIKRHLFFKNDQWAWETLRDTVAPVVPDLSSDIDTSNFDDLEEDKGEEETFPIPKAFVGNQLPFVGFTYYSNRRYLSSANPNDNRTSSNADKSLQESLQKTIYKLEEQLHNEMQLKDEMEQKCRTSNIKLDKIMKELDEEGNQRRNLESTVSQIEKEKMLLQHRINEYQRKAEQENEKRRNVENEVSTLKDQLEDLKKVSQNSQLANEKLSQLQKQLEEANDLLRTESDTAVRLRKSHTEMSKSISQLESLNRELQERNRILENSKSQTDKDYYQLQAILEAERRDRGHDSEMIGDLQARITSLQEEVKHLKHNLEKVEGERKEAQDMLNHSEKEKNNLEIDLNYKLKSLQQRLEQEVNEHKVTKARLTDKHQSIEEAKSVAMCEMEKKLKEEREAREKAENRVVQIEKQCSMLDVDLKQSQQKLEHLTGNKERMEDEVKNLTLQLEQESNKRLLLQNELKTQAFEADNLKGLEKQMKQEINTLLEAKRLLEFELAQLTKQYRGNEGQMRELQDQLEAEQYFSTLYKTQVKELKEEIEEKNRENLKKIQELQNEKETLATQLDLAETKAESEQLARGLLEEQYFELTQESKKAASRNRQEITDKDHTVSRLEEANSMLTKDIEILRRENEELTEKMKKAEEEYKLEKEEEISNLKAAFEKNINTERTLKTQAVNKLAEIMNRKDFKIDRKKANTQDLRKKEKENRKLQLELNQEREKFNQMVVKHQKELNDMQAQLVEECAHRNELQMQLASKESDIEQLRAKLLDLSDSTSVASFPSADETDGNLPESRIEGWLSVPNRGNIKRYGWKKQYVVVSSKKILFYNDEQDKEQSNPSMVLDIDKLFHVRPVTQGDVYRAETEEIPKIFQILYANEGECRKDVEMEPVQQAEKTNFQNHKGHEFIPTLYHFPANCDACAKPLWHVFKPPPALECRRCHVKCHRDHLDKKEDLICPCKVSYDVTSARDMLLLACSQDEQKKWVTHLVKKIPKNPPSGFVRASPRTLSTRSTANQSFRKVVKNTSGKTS

[31] = target: Ribosomal protein S6 kinase beta-1 (Homo sapiens) (UniProt P23443)
[32] = target: SRSF protein kinase 3 (Homo sapiens) (UniProt Q9UPE1)
[33] = target: Serine/threonine-protein kinase 16 (Homo sapiens) (UniProt O75716)
[34] = target: Serine/threonine-protein kinase TAO1 (Homo sapiens) (UniProt Q7L7X3)
[35] = target: High affinity nerve growth factor receptor (Homo sapiens) (UniProt P04629)
[36] = target: Serine/threonine-protein kinase ULK3 (Homo sapiens) (UniProt Q6PHR2)
[37] = target: Serine/threonine-protein kinase 25 (Homo sapiens) (UniProt O00506)
[38] = target: Histamine H3 receptor (Homo sapiens) (UniProt Q9Y5N1); settings: Compound concentration 10.0 uM
[39] = target: Alpha-1D adrenergic receptor (Homo sapiens) (UniProt P25100); settings: Compound concentration 10.0 uM
[40] = Compound concentration 100.0 nM
[41] = Compound concentration 1000.0 nM

**Q.** What does the source list for `CNC(=O)c1ccc(Nc2ncc(C(F)(F)F)c(NCc3nccnc3N(C)S(C)(=O)=O)n2)cc1` [DEFACTINIB]?
**A.** residual activity [1, 40]: 93%; residual activity [2, 40]: 100%; residual activity [3, 40]: 90%; residual activity [4, 40]: 50%; residual activity [5, 40]: 47%; residual activity [6, 40]: 83%; residual activity [7, 40]: 76%; residual activity [8, 40]: 100%; residual activity [9, 40]: 85%; residual activity [10, 40]: 87%; residual activity [11, 40]: 95%; residual activity [12, 40]: 77%; residual activity [13, 40]: 100%; residual activity [14, 40]: 65%; residual activity [15, 40]: 87%; residual activity [16, 40]: 60%; residual activity [17, 40]: 85%; residual activity [18, 40]: 90%; residual activity [19, 40]: 76%; residual activity [20, 40]: 100%; residual activity [21, 40]: 85%; residual activity [22, 40]: 100%; residual activity [23, 40]: 100%; residual activity [24, 40]: 98%; residual activity [25, 40]: 40%; residual activity [26, 40]: 100%; residual activity [27, 40]: 60%; residual activity [28, 40]: 30%; residual activity [29, 40]: 100%; residual activity [30, 40]: 100%; residual activity [31, 40]: 96%; residual activity [32, 40]: 100%; residual activity [33, 40]: 7.7%; residual activity [34, 40]: 50%; residual activity [35, 40]: 13%; residual activity [36, 40]: 75%; residual activity [37, 40]: 85%; inhibition [38]: -7.94%; inhibition [39]: 4.13%

**Q.** For `CN(c1ccnc(CNc2nc(Nc3ccc4c(c3)CC(=O)N4)ncc2C(F)(F)F)n1)S(C)(=O)=O` [PF-00911705], which residual activity [1, 41] is on record?
**A.** 84%

**Q.** What about the residual activity [2, 41] of the same compound?
**A.** 46%

**Q.** And the residual activity [3, 41]?
**A.** 100%

**Q.** What about the residual activity [4, 41] of the same compound?
**A.** 14%

**Q.** And the residual activity [5, 41]?
**A.** 14%

**Q.** And the residual activity [6, 41]?
**A.** 100%

**Q.** And the residual activity [7, 41]?
**A.** 100%

**Q.** And the residual activity [8, 41]?
**A.** 94%

**Q.** What about the residual activity [9, 41] of the same compound?
**A.** 76%

**Q.** What about the residual activity [10, 41] of the same compound?
**A.** 57%

**Q.** And the residual activity [11, 41]?
**A.** 100%

**Q.** And the residual activity [12, 41]?
**A.** 13%

**Q.** What about the residual activity [13, 41] of the same compound?
**A.** 67%

**Q.** What about the residual activity [14, 41] of the same compound?
**A.** 42%

**Q.** And the residual activity [15, 41]?
**A.** 46%

**Q.** And the residual activity [16, 41]?
**A.** 15%

**Q.** And the residual activity [17, 41]?
**A.** 80%

**Q.** And the residual activity [18, 41]?
**A.** 52%

**Q.** What about the residual activity [19, 41] of the same compound?
**A.** 85%

**Q.** And the residual activity [20, 41]?
**A.** 71%

**Q.** What about the residual activity [21, 41] of the same compound?
**A.** 84%

**Q.** And the residual activity [22, 41]?
**A.** 91%

**Q.** And the residual activity [23, 41]?
**A.** 100%

**Q.** And the residual activity [24, 41]?
**A.** 12%

**Q.** What about the residual activity [25, 41] of the same compound?
**A.** 42%

**Q.** And the residual activity [26, 41]?
**A.** 100%

**Q.** And the residual activity [27, 41]?
**A.** 49%

**Q.** And the residual activity [28, 41]?
**A.** 31%

**Q.** What about the residual activity [29, 41] of the same compound?
**A.** 9.7%

**Q.** What about the residual activity [30, 41] of the same compound?
**A.** 49%

**Q.** What about the residual activity [31, 41] of the same compound?
**A.** 50%

**Q.** What about the residual activity [32, 41] of the same compound?
**A.** 11%

**Q.** And the residual activity [33, 41]?
**A.** 1.5%

**Q.** And the residual activity [34, 41]?
**A.** 3.7%

**Q.** What about the residual activity [35, 41] of the same compound?
**A.** 10%

**Q.** What about the residual activity [36, 41] of the same compound?
**A.** 25%

**Q.** What about the residual activity [37, 41] of the same compound?
**A.** 82%

**Q.** What about the inhibition [38] of the same compound?
**A.** 12.9%

**Q.** And the inhibition [39]?
**A.** 15.9%
